What was measured:
rat aortic rings = test: Aortic production of cGMP stimulated by ACh in the presence of LNA; conditions: compound at 3x10 -M (so in the source), 30-minute incubation, ACh 10^-5 M 1 minute, LNA 3x10^-6 M
Protocol: By diffusing to the smooth muscle cells, the NO produced by the endothelial cells activates soluble guanylate cyclase, which brings about an increase in cyclic GMP, which is responsible for relaxation.
The rat aortic rings are prepared as previously. The effects of 30-minute incubation of compounds of the invention at different concentrations are assessed on the production of cGMP stimulated by ACh (10^−5 M—1 minute) in the presence of LNA (3×10^−6 M). The said experiments are carried out in the presence of isobutylmethylxanthine (10^−5 M) in order to avoid degradation of the cGMP by phosphodiesterases. The rings are frozen in liquid nitrogen and maintained at −80° C. until the assay is carried out. The cGMP content is assessed by radioimmunoassay and expressed in relation to the amount of proteins contained in the tissue (assay by the Bradford method).

[1] = tested on: aortic rings of New Zealand rabbits; test: Protective vascular effects with respect to endothelial dysfunction caused by a system generating O2- (XO-Hypo), aortic rings; conditions: compound at 10^-7 M; XO 3 mU/ml, Hypo 10^-4 M; rabbit aortic rings
[2] = tested on: thoracic aorta rings of Wistar rat; test: Vascular protective effects with respect to endothelial dysfunction caused by an inhibitor of NOS (LNA), aortic rings; conditions: compound at 10^-7 M, LNA 3x10^-7 M, relaxation due to ACh
From the text: Under standard in vitro conditions, relaxation of aortic rings caused by acetylcholine (ACh), which relaxation is entirely dependent on the presence of endothelium, reflects the production of NO (stimulated by ACh), which, by diffusing to smooth muscle cells, brings about arterial relaxation (Nature, 1980, 288, 373).
the first model consists of causing inhibition of the relaxation due to ACh by blocking the enzymatic activity (endothelial NOS) responsible for the production of NO;
The thoracic aorta of a Wistar rat (325-375 g), anaesthetised by the intraperitoneal route using pentobarbital sodium (30 mg/kg), is removed and dissected into rings having a length of 3 mm. Each ring is suspended from an isometric tension sensor connected to a recording system and the initial tension applied is 2.5 g. […]
After a 90-minute stabilisation period, the preparations are contracted using phenylephrine (PHE 10^−6 M) and relaxed by adding 10^−5 M of acetylcholine in order to verify the integrity of the endothelial layer. […] The preparations are again contracted using phenylephrine and, after 30 minutes, the relaxations due to acetylcholine (ACh-10^−8 M to 10^−5 M) are assessed in the presence of indomethacin (10^−5 M).
The relaxation values are expressed as a percentage relative to the maximum contraction caused by PHE. […]

Compound: O=c1c(NCCN2CCC(COc3ccccc3)CC2)c(N2CCc3ccccc32)c1=O [Example 5, 3-(2,3-Dihydro-1H-indol-1-yl)-4-({2-[4-(Phenoxymethyl)-1-piperidinyl]-ethyl}amino)-3-cyclobutene-1,2-dione and its methanesulphonate]
- increase of the production of cGMP stimulated by ACh in the presence of LNA (rat aortic rings): 39%
- inhibition of the endothelial dysfunction caused by the XO-Hypo combination [1]: 17%
- inhibition of the endothelial dysfunction caused by LNA [2]: 27%

— patent US20020065419A1, “Cyclobutenedione compounds” (priority 2000, published 2002)
